20 compounds from patent US20240254119A1 (THIRD HARMONIC BIO, INC., priority 2022, published 2024) can be followed below.

The nature of data set [1]: Three time point assay for plasma, brain and testes distribution after oral dosing. The settings on record: rat, oral dosing, time point 2 h. The data set is classed as in vivo, rat. On the procedure: Exemplary compounds were tested for distribution in plasma, brain and testes tissue following oral dosing of the compounds in rats. Procedures and results are described below.
Male SD Rats were group-housed (up to four animals/sex/cage) in polysulfone cages with certified aspen wood bedding during acclimation and study period.
Certified rodent diet and water was provided to all animals ad libitum, unless fasting for study procedures.
Appropriate amount of test article was accurately weighed and mixed with an appropriate volume of vehicle to get a clear solution or a uniform suspension; vortexing or sonication in water bath may also be need. Animals were dosed within four hours after the formulation is prepared.
For PO dosing, the dose formulation was administered via oral gavage following facility SOPs. The dose volume was determined by the animals' body weight collected on the morning of dosing day. The dose was 10 mg/kg.
Each blood collection (about 1 mL per time point at one or more of 0.5 h, 2 h, 3 h, 5.3 h, and 7 h) was performed from jugular vein or other suitable site of each animal into pre-chilled commercial EDTA-K2 tubes and placed on wet ice until centrifugation.
Blood samples were processed for plasma by centrifugation at approximately 4° C., 3,200 g for 10 min. Plasma was collected respectively and transferred into pre-labeled 96 well plate or polypropylene tubes, quick frozen over dry ice and kept at −60° C. or lower until LC-MS/MS analysis.
Rat brain was perfused with PBS to remove blood before harvest.
After perfusion, brain and testis were homogenized using homogenizing buffer (15 mM PBS (pH7.4):MeOH=2:1) at the ratio of 1:9 (1 g tissue with 9 mL buffer, the dilution ratio is 10). The brain homogenate was kept at −60° C. or lower until LC-MS/MS analysis. General sample processing procedure (brain homogenate & testis homogenate) using 96-well plate: • 1). An aliquot of 40 μL unknown sample, calibration standard, quality control and dilution quality control (if have), single blank, and double blank sample was added to the 96-well plate respectively; • 2). Each sample (except the double blank) was quenched with 400 μL of IS1 respectively (double blank sample was quenched with 400 μL of I), and then the mixture was vortex-mixed for 10 min at 800 rpm and centrifuged for 15 min at 3220×g, 4° C.; • 3). An aliquot of 50 μL supernatant was transferred to another clean 96-well plate and centrifuged for 5 min at 3220×g, 4° C., then the supernatant was directly injected for LC-MS/MS analysis.
• 1. A LC-MS/MS method for the quantitative determination of test compound in biological matrix was developed under Non-GLP compliance. • 2. A calibration curve with at least 6 non-zero calibration standards was applied for the method including LLOQ. • 3. A set of QCs consisting of low, middle, and high concentrations were applied for the method. • 4. N in 1 cassette LC-MS/MS method was developed for samples coming from different studies and the interference among all cassette analytes was evaluated during the method development. • 5. Cassette administration assay was performed if the mass difference (Δmass) among different analytes was more than 4 Da. In this case, interference evaluation was not necessary.
• 1. If sample number within a batch was ≤12, at least one set of standard curve separated with two parts through begin and end of the sequence, was included in the run, and QCs were not required. The recommended injection order was C8, C6, C4, C2, study samples, C7, C5, C3, C1. • 2. If sample number within a batch was >12, one standard curve and two sets of QCs with low, middle and high concentrations were applied for bioanalysis. Meanwhile, QCs number should be more than 5% of study sample number. • 3. Samples with the same types of matrix in different studies were quantified in one analysis run by using the developed N in 1 cassette LC-MS/MS method. • 4. […]

Data set [2] concerns the target T1, MDR1 (MDR1-MDCKII cells) (Homo sapiens, UniProt P08183).
T1 construct: host or cells: MDCKII (canine kidney) cells
The data set is described as follows: Permeability in MDR1-MDCKII cells. The data set is classed as in vitro ADME. The settings on record: for MDCKII-MDR1: Papp A-B: MDCKII-MDR1, apical to basolateral. On the procedure: Exemplary compounds were tested for cell permeability in Caco-2, MDCKII-MDR1 and MDCKII-BCRP cell lines with efflux transporter engagement inferred from the efflux ratios determined. Procedures and results are described below. […] This feature of certain compounds is in part due to efflux transporter engagement. See, for instance, exemplary such compounds included in data tables below.
MDR1-MDCKII cells (obtained from Piet Borst at the Netherlands Cancer Institute) were seeded onto […] membranes (PET) in 96-well insert systems at 2.5×10^5 cells/mL until to 4-7 days for confluent cell monolayer formation.
Test compounds were diluted with the transport buffer (HBSS with 10 mM Hepes, pH7.4) from DMSO stock solution to a concentration of 2.00 μM (DMSO<1%) and applied to the apical or basolateral side of the cell monolayer. Permeation of the test compounds from A to B direction or B to A direction was determined in duplicate. Digoxin was tested at 10.0 μM from A to B direction or B to A direction as well, while nadolol and metoprolol were tested at […] in A to B direction in duplicate. The plate was incubated for 2.5 hours in CO2 incubator at 37±1° C., with 5% CO2 at saturated humidity without shaking. In addition, the efflux ratio of each compound was also determined. Test and reference compounds were quantified by LC-MS/MS analysis based on the peak area ratio of analyte/IS.
After transport assay, Lucifer yellow rejection assay are applied to determine the cell monolayer integrity. Buffers are removed from both apical and basolateral chambers, followed by the addition of 75 μL of 100 μM lucifer yellow in transport buffer and 250 μL transport buffer in apical and basolateral chambers, respectively. The plate is incubated for 30 minutes at 37° C. with 5% CO2 and saturated humidity without shaking. After 30 minutes incubation, 20 μL of lucifer yellow samples are taken from the apical sides, followed by the addition of 60 μL of Transport Buffer. And then 80 μL of lucifer yellow samples are taken from the basolateral sides. The relative fluorescence unit (RFU) of lucifer yellow is measured at 425/528 nm (excitation/emission) with an Envision plate reader.
The apparent permeability coefficient Papp (cm/s) was calculated using the equation: […]
Where dCr/dt is the cumulative concentration of compound in the receiver chamber as a function of time (μM/s); Vr is the solution volume in the receiver chamber (0.075 mL on the apical side, 0.25 mL on the basolateral side); A is the surface area for the transport, i.e. 0.0804 cm^2 for the area of the monolayer; C0 is the initial concentration in the donor chamber (μM). The efflux ratio was calculated using the equation: […]
Where Vd is the volume in the donor chambers (0.075 mL on the apical side, 0.25 mL on the basolateral side); Cd and Cr are the final concentrations of transport compound in donor and receiver chambers, respectively.

T1 sequence (P08183 whole entry): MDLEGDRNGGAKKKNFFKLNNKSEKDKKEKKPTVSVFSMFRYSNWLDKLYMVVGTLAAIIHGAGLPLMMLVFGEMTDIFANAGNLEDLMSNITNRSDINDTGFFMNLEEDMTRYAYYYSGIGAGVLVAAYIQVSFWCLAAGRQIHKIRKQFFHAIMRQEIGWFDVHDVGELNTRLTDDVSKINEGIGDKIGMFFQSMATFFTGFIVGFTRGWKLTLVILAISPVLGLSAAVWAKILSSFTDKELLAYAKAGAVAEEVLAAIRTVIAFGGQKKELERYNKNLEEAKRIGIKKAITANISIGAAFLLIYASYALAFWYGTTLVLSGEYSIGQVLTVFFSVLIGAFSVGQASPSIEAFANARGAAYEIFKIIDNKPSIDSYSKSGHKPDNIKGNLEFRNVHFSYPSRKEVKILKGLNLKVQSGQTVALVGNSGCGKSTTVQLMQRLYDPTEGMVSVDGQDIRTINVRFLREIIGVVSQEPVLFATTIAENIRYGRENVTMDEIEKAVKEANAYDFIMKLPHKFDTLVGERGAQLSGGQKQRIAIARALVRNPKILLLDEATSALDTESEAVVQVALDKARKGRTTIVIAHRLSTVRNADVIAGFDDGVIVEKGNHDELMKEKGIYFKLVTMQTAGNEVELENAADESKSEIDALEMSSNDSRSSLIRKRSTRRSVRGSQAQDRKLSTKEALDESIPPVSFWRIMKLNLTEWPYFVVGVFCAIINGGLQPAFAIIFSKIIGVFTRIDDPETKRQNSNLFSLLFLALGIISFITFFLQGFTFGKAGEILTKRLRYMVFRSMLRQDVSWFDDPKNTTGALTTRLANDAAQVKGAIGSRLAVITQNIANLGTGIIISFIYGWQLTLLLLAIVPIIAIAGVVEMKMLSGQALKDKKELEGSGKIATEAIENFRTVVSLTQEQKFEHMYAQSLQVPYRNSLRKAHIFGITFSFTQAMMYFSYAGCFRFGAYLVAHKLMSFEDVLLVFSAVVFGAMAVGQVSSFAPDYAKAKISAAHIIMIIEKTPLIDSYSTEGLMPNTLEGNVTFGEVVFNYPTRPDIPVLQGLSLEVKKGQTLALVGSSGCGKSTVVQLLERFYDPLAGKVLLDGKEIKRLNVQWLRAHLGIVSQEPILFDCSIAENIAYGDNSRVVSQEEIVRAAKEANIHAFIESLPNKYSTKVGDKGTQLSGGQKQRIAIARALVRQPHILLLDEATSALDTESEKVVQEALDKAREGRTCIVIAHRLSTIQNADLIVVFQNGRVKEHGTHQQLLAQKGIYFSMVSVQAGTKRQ

Regarding `Cc1ccc(-c2noc([C@H](C)O)n2)cc1NC(=O)c1cnc2ccccn12` [Compound I-271], in data set [1], the Brain concentration turned out to be 325 ng/g, the Kp brain/plasma is on record as 0.18, the Kp testes/plasma turned out to be 0.58 and the Plasma concentration is 1760 ng/mL. The Testes concentration in data set [1] worked out at 1020 ng/g. Moreover, in data set [2], the “MDCKII-MDR1: Efflux Ratio” value was found to be 1.36 and the “MDCKII-MDR1: Papp A-B” value is reported as 18.5 10^−6 cm/s.
With `Cc1nc(-c2ccc(Cl)c(NC(=O)c3cnc4ccccn34)c2)no1` [Compound I-172], in data set [2], the “MDCKII-MDR1: Efflux Ratio” value was 0.46 and the “MDCKII-MDR1: Papp A-B” value is 22.7 10^−6 cm/s.
For `Cc1ccc(-c2noc([C@H]3C[C@@H]3F)n2)cc1NC(=O)c1cnc2ccc(F)cn12` [Compound I-288], in that order: 0.51 and 20.6 10^−6 cm/s.
For `Cc1ccc(-c2noc(CC(C)(C)O)n2)cc1NC(=O)c1cnc2ccccn12` [Compound I-336], in that order: 1.85 and 15.4 10^−6 cm/s.
Regarding `Cc1ccc(-c2noc(C3COC3)n2)cc1NC(=O)c1cnc2ccccn12` [Compound I-138], in data set [2], the “MDCKII-MDR1: Efflux Ratio” value is on record as 1.01 and the “MDCKII-MDR1: Papp A-B” value is reported as 22 10^−6 cm/s.
In the case of `Cc1ccc(-c2noc(C3CCC3F)n2)cc1NC(=O)c1cnc2ccccn12` (racemic) [Compound I-376], in data set [2], the “MDCKII-MDR1: Efflux Ratio” value was 0.54 and the “MDCKII-MDR1: Papp A-B” value is 8.41 10^−6 cm/s.
Turning to `Cc1ccc(-c2noc([C@H]3C[C@@H]3F)n2)cc1NC(=O)c1cnc2ccc(C#N)cn12` [Compound I-384], in data set [1], the Brain concentration is 21.4 ng/g, the Kp brain/plasma was 0.53, the Kp testes/plasma amounted to 1.49 and the Plasma concentration was found to be 40.6 ng/mL. In data set [1], this compound registered a Testes concentration of 60.7 ng/g. For the same compound, in data set [2], the “MDCKII-MDR1: Efflux Ratio” value worked out at 0.88 and the “MDCKII-MDR1: Papp A-B” value is listed as 17.9 10^−6 cm/s.
Consider `CNC(=O)N1CC(c2nc(-c3ccc(C)c(NC(=O)c4cnc5ccccn45)c3)no2)C1` [Compound I-282], for which, in data set [2], the “MDCKII-MDR1: Efflux Ratio” value came out at 70.3 and the “MDCKII-MDR1: Papp A-B” value is on record as 0.47 10^−6 cm/s.
For `Cc1ccc(-c2noc(C3CN(C(=O)CO)C3)n2)cc1NC(=O)c1cnc2ccccn12` [Compound I-287], in that order: 27.9 and 0.83 10^−6 cm/s.
For `CCCS(=O)(=O)N1CC(c2nc(-c3ccc(Cl)c(NC(=O)c4cnc5ccccn45)c3)no2)C1` [Compound I-220], in that order: 0.71 and 16.3 10^−6 cm/s.
The corresponding values for `Cc1ccc(-c2noc(C3CC(C)(F)C3)n2)cc1NC(=O)c1cnc2ccccn12` (stereo not drawn) [Compound I-387] are 0.48 and 7.59 10^−6 cm/s.
With `COC(=O)N1CC(c2nc(-c3ccc(C(F)F)c(NC(=O)c4cnc5ccccn45)c3)no2)C1` [Compound I-225], in data set [1], the Brain concentration was 506 ng/g, the Kp brain/plasma is 0.15, the Kp testes/plasma came to 0.33 and the Plasma concentration is 3420 ng/mL. In data set [1], the Testes concentration amounted to 1140 ng/g. In data set [2], the “MDCKII-MDR1: Efflux Ratio” value worked out at 1.1 and the “MDCKII-MDR1: Papp A-B” value is on record as 15.9 10^−6 cm/s.
Take `Cc1ccc(-c2noc(C(C)NS(C)(=O)=O)n2)cc1NC(=O)c1cnc2ccccn12` (single isomer, unassigned) [Compound I-237]: in data set [1], the Brain concentration came to 0 ng/g, the Kp testes/plasma is reported as 0.18, the Plasma concentration is 1090 ng/mL and the Testes concentration was 192 ng/g. Moreover, in data set [2], the “MDCKII-MDR1: Efflux Ratio” value was 20.5 and the “MDCKII-MDR1: Papp A-B” value is given as 1.43 10^−6 cm/s.
Consider `Cc1ccc(-c2noc(C3CCN3)n2)cc1NC(=O)c1cnc2ccccn12` (racemic) [Compound I-394], for which, in data set [2], the “MDCKII-MDR1: Efflux Ratio” value is 3.08 and the “MDCKII-MDR1: Papp A-B” value is on record as 6.21 10^−6 cm/s.
For `CCCNc1ccn2c(C(=O)Nc3cc(-c4noc([C@H]5C[C@@H]5F)n4)ccc3C)cnc2c1` [Compound I-304], in data set [2], the “MDCKII-MDR1: Efflux Ratio” value came to 1.08 and the “MDCKII-MDR1: Papp A-B” value is given as 3.65 10^−6 cm/s.
With `Cc1ccc(-c2noc(CC(C)O)n2)cc1NC(=O)c1cnc2ccccn12` (racemic) [Compound I-363], in data set [1], the Brain concentration is reported as 46 ng/g, the Kp brain/plasma is 0.06, the Kp testes/plasma is recorded as 0.13 and the Plasma concentration was determined as 815 ng/mL. The compound also showed a Testes concentration in data set [1] of 104 ng/g. Besides, in data set [2], the “MDCKII-MDR1: Efflux Ratio” value stood at 2.01 and the “MDCKII-MDR1: Papp A-B” value is on record as 13 10^−6 cm/s.
Consider `Cc1ccc(-c2noc(C3(N)CC4(CC(F)(F)C4)C3)n2)cc1NC(=O)c1cnc2ccccn12` [Compound I-307], for which, in data set [1], the Brain concentration worked out at 82.4 ng/g, the Kp brain/plasma came to 0.21, the Kp testes/plasma worked out at 1.19 and the Plasma concentration came out at 389 ng/mL. In data set [1], this compound gave a Testes concentration of 464 ng/g. Besides, in data set [2], the “MDCKII-MDR1: Efflux Ratio” value is 1.93 and the “MDCKII-MDR1: Papp A-B” value is listed as 8.84 10^−6 cm/s.
In the case of `O=C(Nc1cc(-c2noc([C@H]3C[C@@H]3F)n2)ccc1Cl)c1cnc2ccccn12` [Compound I-341], in data set [2], the “MDCKII-MDR1: Efflux Ratio” value is listed as 0.82 and the “MDCKII-MDR1: Papp A-B” value was 17.7 10^−6 cm/s.
For the compound `Cc1ccc(-c2noc(CCO)n2)cc1NC(=O)c1cnc2ccccn12` [Compound I-306], in data set [2], the “MDCKII-MDR1: Efflux Ratio” value stood at 2.88 and the “MDCKII-MDR1: Papp A-B” value was 14.5 10^−6 cm/s.
For `Cc1ccc(-c2noc([C@H]3CCC(=O)N3)n2)cc1NC(=O)c1cnc2ccccn12` (racemic) [Compound I-327], in that order: 38.7 and 0.78 10^−6 cm/s.
